Experimental data reported in the supplement of paper PMC10733146.

Columns and labels:
Test in all cases: viability relative to DMSO control (fraction); higher = less drug effect (more viable cells)
Details in all cases: 48 h
[1] = system: primary FL patient cells (S022)
Method in brief: (§1)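 In 384-well plates with compounds pre-plated at five concentrations (one well per concentration), primary mononuclear tumour cells were plated at 4 × 10^4 cells per well. The cells came from blood or bone marrow by Ficoll isolation or from processed lymph node, and were used fresh or cryopreserved. Culture ran for 48 h at 37 °C and 5% CO2 in RPMI-1640 containing penicillin/streptomycin, L-glutamine and human serum. Viability was read as CellTiter-Glo luminescence, normalised to the median of 16 inner DMSO wells.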

[2] = system: primary FL patient cells (S087)
Method in brief: as §1

[3] = system: primary AML patient cells (S056)
Method in brief: as §1

[4] = system: primary MCL patient cells (S063)
Method in brief: as §1

[5] = system: primary AML patient cells (S085)
Method in brief: as §1

[6] = system: primary CLL patient cells (S031)
Method in brief: as §1

[7] = system: primary MCL patient cells (S041)
Method in brief: as §1

[8] = system: primary AML patient cells (S079)
Method in brief: as §1

[9] = system: primary ALL patient cells (S088)
Method in brief: as §1

[10] = system: primary AML patient cells (S006)
Method in brief: as §1

[11] = system: primary ALL patient cells (S048)
Method in brief: as §1

[12] = system: primary AML patient cells (S011)
Method in brief: as §1

[13] = system: primary AML patient cells (S019)
Method in brief: as §1

[14] = system: primary AML patient cells (S012)
Method in brief: as §1

Question: What does the source list for `Nc1nc(Cl)nc2c1ncn2[C@@H]1O[C@H](CO)[C@@H](O)[C@@H]1F` [Clofarabine]?
Answer: viability ([1]; 0.024 µM): 0.817; viability ([1]; 0.12 µM): 0.643; viability ([1]; 0.6 µM): 0.457; viability ([1]; 3 µM): 0.306; viability ([1]; 15 µM): 0.256; viability ([2]; 0.024 µM): 0.823; viability ([2]; 0.12 µM): 0.673; viability ([2]; 0.6 µM): 0.587; viability ([2]; 3 µM): 0.536; viability ([2]; 15 µM): 0.547; viability ([3]; 0.024 µM): 1; viability ([3]; 0.12 µM): 0.413; viability ([3]; 0.6 µM): 0.288; viability ([3]; 3 µM): 0.277; viability ([3]; 15 µM): 0.303; viability ([4]; 0.024 µM): 0.912; viability ([4]; 0.12 µM): 0.736; viability ([4]; 0.6 µM): 0.245; viability ([4]; 3 µM): 0.0814; viability ([4]; 15 µM): 0.0383; viability ([5]; 0.024 µM): 0.897; viability ([5]; 0.12 µM): 0.41; viability ([5]; 0.6 µM): 0.286; viability ([5]; 3 µM): 0.468; viability ([5]; 15 µM): 0.555; viability ([6]; 0.024 µM): 0.424; viability ([6]; 0.12 µM): 0.0924; viability ([6]; 0.6 µM): 0.0411; viability ([6]; 3 µM): 0.0349; viability ([6]; 15 µM): 0.0384; viability ([7]; 0.024 µM): 0.862; viability ([7]; 0.12 µM): 0.254; viability ([7]; 0.6 µM): 0.0698; viability ([7]; 3 µM): 0.0397; viability ([7]; 15 µM): 0.0361; viability ([8]; 0.024 µM): 0.804; viability ([8]; 0.12 µM): 0.512; viability ([8]; 0.6 µM): 0.285; viability ([8]; 3 µM): 0.139; viability ([8]; 15 µM): 0.0818; viability ([9]; 0.024 µM): 0.569; viability ([9]; 0.12 µM): 0.254; viability ([9]; 0.6 µM): 0.203; viability ([9]; 3 µM): 0.173; viability ([9]; 15 µM): 0.109; viability ([10]; 0.024 µM): 0.759; viability ([10]; 0.12 µM): 0.381; viability ([10]; 0.6 µM): 0.351; viability ([10]; 3 µM): 0.461; viability ([10]; 15 µM): 0.489; viability ([11]; 0.024 µM): 0.345; viability ([11]; 0.12 µM): 0.0686; viability ([11]; 0.6 µM): 0.0335; viability ([11]; 3 µM): 0.0271; viability ([11]; 15 µM): 0.0269; viability ([12]; 0.024 µM): 0.762; viability ([12]; 0.12 µM): 0.535; viability ([12]; 0.6 µM): 0.299; viability ([12]; 3 µM): 0.17; viability ([12]; 15 µM): 0.0898; viability ([13]; 0.024 µM): 0.918; viability ([13]; 0.12 µM): 0.476; viability ([13]; 0.6 µM): 0.392; viability ([13]; 3 µM): 0.431; viability ([13]; 15 µM): 0.345; viability ([14]; 0.024 µM): 0.956; viability ([14]; 0.12 µM): 0.826; viability ([14]; 0.6 µM): 0.459; viability ([14]; 3 µM): 0.276; viability ([14]; 15 µM): 0.136

Question: Which viability ([1]; 0.016 µM) does the source give for `CC1(COc2ccc3c(c2)ncn3-c2ccc3cccc(N4CCC(N)CC4)c3n2)COC1` [Crenolanib] here?
Answer: 0.991

Question: And the viability ([1]; 0.08 µM)?
Answer: 1.07

Question: What about the viability ([1]; 0.4 µM) of the same molecule?
Answer: 0.966

Question: And the viability ([1]; 2 µM)?
Answer: 0.743

Question: What about the viability ([1]; 10 µM) of the same molecule?
Answer: 0.0846

Question: And the viability ([2]; 0.016 µM)?
Answer: 1.02

Question: And the viability ([2]; 0.08 µM)?
Answer: 0.971

Question: And the viability ([2]; 0.4 µM)?
Answer: 1

Question: What about the viability ([2]; 2 µM) of the same molecule?
Answer: 0.847

Question: What about the viability ([2]; 10 µM) of the same molecule?
Answer: 0.357

Question: What about the viability ([3]; 0.016 µM) of the same molecule?
Answer: 0.613

Question: And the viability ([3]; 0.08 µM)?
Answer: 1.35

Question: What about the viability ([3]; 0.4 µM) of the same molecule?
Answer: 0.631

Question: What about the viability ([3]; 2 µM) of the same molecule?
Answer: 0.73

Question: What about the viability ([3]; 10 µM) of the same molecule?
Answer: 0.157

Question: What about the viability ([4]; 0.016 µM) of the same molecule?
Answer: 1.08

Question: What about the viability ([4]; 0.08 µM) of the same molecule?
Answer: 1.13

Question: And the viability ([4]; 0.4 µM)?
Answer: 0.958

Question: And the viability ([4]; 2 µM)?
Answer: 0.83

Question: And the viability ([4]; 10 µM)?
Answer: 0.0336

Question: What about the viability ([5]; 0.016 µM) of the same molecule?
Answer: 1.13

Question: And the viability ([5]; 0.08 µM)?
Answer: 1.3

Question: And the viability ([5]; 0.4 µM)?
Answer: 2.22

Question: What about the viability ([5]; 2 µM) of the same molecule?
Answer: 1.82

Question: What about the viability ([5]; 10 µM) of the same molecule?
Answer: 0.0652

Question: And the viability ([6]; 0.016 µM)?
Answer: 1.09

Question: What about the viability ([6]; 0.08 µM) of the same molecule?
Answer: 1.13

Question: What about the viability ([6]; 0.4 µM) of the same molecule?
Answer: 1.02

Question: And the viability ([6]; 2 µM)?
Answer: 0.305

Question: And the viability ([6]; 10 µM)?
Answer: 0.0182

Question: What about the viability ([7]; 0.016 µM) of the same molecule?
Answer: 1.08

Question: What about the viability ([7]; 0.08 µM) of the same molecule?
Answer: 1.07

Question: What about the viability ([7]; 0.4 µM) of the same molecule?
Answer: 0.983

Question: And the viability ([7]; 2 µM)?
Answer: 0.447

Question: What about the viability ([7]; 10 µM) of the same molecule?
Answer: 0.0254

Question: What about the viability ([8]; 0.016 µM) of the same molecule?
Answer: 1.02

Question: And the viability ([8]; 0.08 µM)?
Answer: 1.17

Question: What about the viability ([8]; 0.4 µM) of the same molecule?
Answer: 0.996

Question: What about the viability ([8]; 2 µM) of the same molecule?
Answer: 0.889

Question: And the viability ([8]; 10 µM)?
Answer: 0.0548

Question: What about the viability ([9]; 0.016 µM) of the same molecule?
Answer: 0.695

Question: What about the viability ([9]; 0.08 µM) of the same molecule?
Answer: 0.674

Question: And the viability ([9]; 0.4 µM)?
Answer: 0.584

Question: And the viability ([9]; 2 µM)?
Answer: 0.439

Question: And the viability ([9]; 10 µM)?
Answer: 0.033

Question: What about the viability ([10]; 0.016 µM) of the same molecule?
Answer: 0.559

Question: And the viability ([10]; 0.08 µM)?
Answer: 0.649

Question: And the viability ([10]; 0.4 µM)?
Answer: 0.889

Question: And the viability ([10]; 2 µM)?
Answer: 0.977

Question: What about the viability ([10]; 10 µM) of the same molecule?
Answer: 0.333

Question: What about the viability ([11]; 0.016 µM) of the same molecule?
Answer: 0.85

Question: What about the viability ([11]; 0.08 µM) of the same molecule?
Answer: 0.851

Question: What about the viability ([11]; 0.4 µM) of the same molecule?
Answer: 0.797

Question: What about the viability ([11]; 2 µM) of the same molecule?
Answer: 0.554

Question: What about the viability ([11]; 10 µM) of the same molecule?
Answer: 0.418

Question: And the viability ([12]; 0.016 µM)?
Answer: 1.14

Question: And the viability ([12]; 0.08 µM)?
Answer: 0.997

Question: And the viability ([12]; 0.4 µM)?
Answer: 1.02

Question: What about the viability ([12]; 2 µM) of the same molecule?
Answer: 0.824

Question: What about the viability ([12]; 10 µM) of the same molecule?
Answer: 0.0337

Question: And the viability ([13]; 0.016 µM)?
Answer: 0.927

Question: What about the viability ([13]; 0.08 µM) of the same molecule?
Answer: 1.17

Question: And the viability ([13]; 0.4 µM)?
Answer: 0.995

Question: What about the viability ([13]; 2 µM) of the same molecule?
Answer: 1.19

Question: And the viability ([13]; 10 µM)?
Answer: 0.148

Question: And the viability ([14]; 0.016 µM)?
Answer: 0.935

Question: What about the viability ([14]; 0.08 µM) of the same molecule?
Answer: 0.964

Question: And the viability ([14]; 0.4 µM)?
Answer: 0.978

Question: What about the viability ([14]; 2 µM) of the same molecule?
Answer: 0.959

Question: And the viability ([14]; 10 µM)?
Answer: 0.528
